Assay results: patent US9458172B2, “Pyridinyl and pyrimidinyl sulfoxide and sulfone derivatives” (priority 2012, dated 2016)
Like-named read-outs stand apart in the source and are kept apart here.

What was measured:
[1] = target: NAMPT (Homo sapiens (Human), UniProt P43490); assay: Biochemical Inhibition Assay (NAMPT enzymatic reaction, NMN quantified by mass spectrometry); details: 33 nM recombinant His-tagged NAMPT, 1 μM NAM, 30 min at rt
In short: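 His-tagged human NAMPT from E. coli preincubated 15 min at rt with compound in 50 mM Hepes pH 7.5, 50 mM NaCl, 5 mM MgCl2, 1 mM THP, then reacted 30 min at rt with 1 μM NAM, […] PRPP, 2.5 mM ATP. NMN quantified by RapidFire mass spectrometry, normalized to L-Cystathionine, background subtracted.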

[2] = test system: A2780 cells; assay: In-Vitro Cell Proliferation Assay (SRB)
[3] = Homo sapiens, A2780, 72 h, read-out: Cell Proliferation (IC50)
[4] = Homo sapiens, A2780, 72 h, read-out: Cell Proliferation (IC50), A2780 cells, 72 h, sulforhodamine B

Sequence of NAMPT (P43490 whole entry): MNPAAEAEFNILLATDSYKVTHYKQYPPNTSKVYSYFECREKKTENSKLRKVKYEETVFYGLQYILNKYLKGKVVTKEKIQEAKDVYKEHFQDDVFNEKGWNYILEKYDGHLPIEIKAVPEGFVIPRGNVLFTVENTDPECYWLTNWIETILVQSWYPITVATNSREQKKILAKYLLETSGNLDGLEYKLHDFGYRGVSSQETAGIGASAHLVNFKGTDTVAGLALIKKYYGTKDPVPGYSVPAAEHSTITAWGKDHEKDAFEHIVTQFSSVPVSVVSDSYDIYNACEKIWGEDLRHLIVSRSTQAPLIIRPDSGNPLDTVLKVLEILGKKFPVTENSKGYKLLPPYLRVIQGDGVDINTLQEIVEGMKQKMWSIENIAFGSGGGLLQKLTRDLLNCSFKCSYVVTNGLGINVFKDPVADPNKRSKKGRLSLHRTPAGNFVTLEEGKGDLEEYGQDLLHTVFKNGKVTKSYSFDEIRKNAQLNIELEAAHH

| IC50 [1] | IC50 [2, 3] | IC50 [2, 4] | SMILES | IC50 ([2]; read-out: Cell Proliferation (IC50), A2780 cells, 72 h, sulforhodamine B) |
| --- | --- | --- | --- | --- |
| 27.8 nM | 20.4 nM |  | CN(C)c1ccc(S(=O)(=O)c2ccc(CNC(=O)c3cnc4[nH]ncc4c3)nc2)cn1 [Example 84, 1H-Pyrazolo[3,4-b]pyridine-5-carboxylic acid [5-(6-dimethylamino-pyridine-3-sulfonyl)-pyridin-2-ylmethyl]-amide] |  |
| 32.9 nM | 9.7 nM |  | O=C(NCc1ccc(S(=O)(=O)c2cc(F)cc(N3CCOCC3)c2)cn1)c1cnc2[nH]ncc2c1 [Example 85, 1H-Pyrazolo[3,4-b]pyridine-5-carboxylic acid [5-(3-fluoro-5-morpholin-4-yl-benzenesulfonyl)-pyridin-2-ylmethyl]-amide] |  |
| 354 nM |  | 2000 nM | Nc1ncc2c(n1)CN(C(=O)NCc1ccc(S(=O)(=O)c3cc(F)cc(F)c3)cn1)C2 [Example 86, 2-Amino-5,7-dihydro-pyrrolo[3,4-d]pyrimidine-6-carboxylic acid [5-(3,5-difluoro-benzenesulfonyl)-pyridin-2-ylmethyl]-amide] |  |
| 47.4 nM | 45.7 nM |  | O=C(NCc1ccc(S(=O)(=O)N2CCC(N3CCCC3)CC2)cn1)c1cc2ccncc2o1 [Example 91, Furo[2,3-c]pyridine-2-carboxylic acid [5-(4-pyrrolidin-1-yl-piperidine-1-sulfonyl)-pyridin-2-ylmethyl]-amide] |  |
| 33.9 nM |  | 56.8 nM | Cc1ccc(S(=O)(=O)c2ccc(CNC(=O)c3ccc4nccn4c3)nc2)cn1 [Example 92, Imidazo[1,2-a]pyridine-6-carboxylic acid [5-(6-methyl-pyridine-3-sulfonyl)-pyridin-2-ylmethyl]-amide] |  |
| 4.9 nM | 1.16 nM |  | CN(C)c1ncc(S(=O)(=O)c2ccc(CNC(=O)c3cc4ccncc4o3)nc2)s1 [Example 93, Furo[2,3-c]pyridine-2-carboxylic acid [5-(2-dimethylamino-thiazole-5-sulfonyl)-pyridin-2-ylmethyl]-amide] |  |
| 37.7 nM | 234 nM |  | Cc1ccc(S(=O)(=O)c2ccc(CNC(=O)c3cc4ccncc4s3)nc2)cn1 [Example 95, Thieno[2,3-c]pyridine-2-carboxylic acid [5-(6-methyl-pyridine-3-sulfonyl)-pyridin-2-ylmethyl]-amide] |  |
| 19.3 nM | 38.1 nM |  | CCS(=O)(=O)c1cccc(S(=O)(=O)c2ccc(CNC(=O)c3ccc4nccn4c3)nc2)c1 [Example 96, Imidazo[1,2-a]pyridine-6-carboxylic acid [5-(3-ethanesulfonyl-benzenesulfonyl)-pyridin-2-ylmethyl]-amide] |  |
| 6.6 nM | 4.97 nM |  | CN(C)c1ncc(S(=O)(=O)c2ccc(CNC(=O)N3Cc4ccncc4C3)nc2)s1 [Example 98, 1,3-Dihydro-pyrrolo[3,4-c]pyridine-2-carboxylic acid [5-(2-dimethylamino-thiazole-5-sulfonyl)-pyridin-2-ylmethyl)-amide] |  |
| 54.7 nM | 1200 nM |  | Cn1cc(S(=O)(=O)c2ccc(CNC(=O)N3Cc4ccncc4C3)nc2)cn1 [Example 99, 1,3-Dihydro-pyrrolo[3,4-c]pyridine-2-carboxylic acid [5-(1-methyl-1H-pyrazole-4-sulfonyl)-pyridin-2-ylmethyl]-amide] |  |
| 11.1 nM | 76.6 nM |  | O=C(NCc1ccc(S(=O)(=O)c2cccc(F)c2)cn1)N1Cc2ccncc2C1 [Example 100, 1,3-Dihydro-pyrrolo[3,4-c]pyridine-2-carboxylic acid [5-(3-fluoro-benzenesulfonyl)-pyridin-2-ylmethyl]-amide] |  |
| 67.9 nM | 116 nM |  | O=C(NCc1ccc(S(=O)(=O)C2CCN(C3COC3)CC2)cn1)N1Cc2ccncc2C1 [Example 104, 1,3-Dihydro-pyrrolo[3,4-c]pyridine-2-carboxylic acid [5-(1-oxetan-3-yl-piperidine-4-sulfonyl)-pyridin-2-ylmethyl]-amide] |  |
| 135 nM | 328 nM |  | CCS(=O)(=O)c1cccc(S(=O)(=O)c2ccc(CNC(=O)c3cnc4[nH]ncc4c3)nc2)c1 [Example 106, 1H-Pyrazolo[3,4-b]pyridine-5-carboxylic acid [5-(3-ethanesulfonyl-benzenesulfonyl)-pyridin-2-ylmethyl]-amide] |  |
| 731 nM |  | 1300 nM | O=C(NCc1ccc(S(=O)(=O)c2ccc(C(F)(F)F)nc2)cn1)c1cnc2[nH]ncc2c1 [Example 107, 1H-Pyrazolo[3,4-b]pyridine-5-carboxylic acid [5-(6-trifluoromethyl-pyridine-3-sulfonyl)-pyridin-2-ylmethyl]-amide] |  |
| 27.7 nM | 358 nM |  | CCCC(=O)N1CCC(S(=O)(=O)c2ccc(CNC(=O)N3Cc4ccncc4C3)nc2)CC1 [Example 108, 1,3-Dihydro-pyrrolo[3,4-c]pyridine-2-carboxylic acid [5-(1-butyryl-piperidine-4-sulfonyl)-pyridin-2-ylmethyl]-amide] |  |
| 6.8 nM | 15.1 nM |  | CCS(=O)(=O)c1cccc(S(=O)(=O)c2ccc(CNC(=O)c3cc4ccncc4o3)nc2)c1 [Example 109, N-[[5-(3-ethylsulfonylphenyl)sulfonyl-2-pyridyl]methyl]furo[2,3-c]pyridine-2-carboxamide] |  |
| 13.3 nM | 25.9 nM |  | Nc1ccc(S(=O)(=O)c2ccc(CNC(=O)c3cc4ccncc4o3)nc2)cn1 [Example 110, N-[[5-[(6-amino-3-pyridyl)sulfonyl]-2-pyridyl]methyl]furo[2,3-c]pyridine-2-carboxamide] |  |
| 3 nM |  | 101 nM | O=C(NCc1ccc(S(=O)(=O)C2CCN(CC(F)(F)F)CC2)cn1)c1cnc2nccn2c1 [Example 111, N-[[5-[[1-(2,2,2-trifluoroethyl)-4-piperidyl]sulfonyl]-2-pyridyl]methyl]imidazo[1,2-a]pyrimidine-6-carboxamide] |  |
| 0.99 nM | 1.06 nM |  | COc1cc(OC)cc(S(=O)(=O)c2ccc(CNC(=O)c3cc4ccncc4o3)nc2)c1 [Example 112, N-[[5-(3,5-dimethoxyphenyl)sulfonyl-2-pyridyl]methyl]furo[2,3-c]pyridine-2-carboxamide] |  |
| 2.12 nM | 134 nM |  | CCS(=O)(=O)c1cccc(S(=O)(=O)c2ccc(CNC(=O)N3Cc4ccncc4C3)nc2)c1 [Example 114, N-[[5-(3-ethylsulfonylphenyl)sulfonyl-2-pyridyl]methyl]-1,3-dihydropyrrolo(3,4-c]pyridine-2-carboxamide] |  |
| 15.5 nM |  | 8.92 nM | O=C(NCc1ccc([S+]([O-])c2cc(F)cc(F)c2)cn1)N1Cc2ccncc2C1 (stereo not shown) [Example 116, N-[[5-(3,5-difluorophenyl)sulfinyl-2-pyridyl]methyl]-1,3-dihydropyrrolo[3,4-c]pyridine-2-carboxamide] |  |
| 37.5 nM |  | 14.5 nM | O=C(NCc1ccc(S(=O)(=O)C2CCN(C3CCOCC3)CC2)cn1)N1Cc2ccncc2C1 [Example 119, N-[[5-[(1-tetrahydropyran-4 yl-4-piperidyl)sulfonyl]-2-pyridyl]methyl]-1,3-dihydropyrrolo[3,4-c]pyridine-2-carboxamide] |  |

| SMILES | IC50 [1] | IC50 [2, 3] | IC50 [2, 4] | IC50 ([2]; read-out: Cell Proliferation (IC50), A2780 cells, 72 h, sulforhodamine B) |
| --- | --- | --- | --- | --- |
| O=C(NCc1ccc([S+]([O-])C2CCN(CC(F)(F)F)CC2)cn1)c1cc2ccncc2o1 (stereo not shown) [Example 118, N-[[5-[[1-(2,2,2-trifluoroethyl)-4-piperidyl]sulfinyl]-2-pyridyl]rnethyl]furo[2,3-c]pyridine-2-carboxamide] | 76.1 nM |  |  | 12.2 nM |
